According to PubChem BioAssay (NCI):
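Each compound was tested at five concentrations against cells in 96-well plates for 48 hours. GI50 = concentration required for 50% inhibition of growth. The concentration for full growth arrest is given as TGI.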

Experiments:
Assay in all cases: inhibition of tumour cell growth, NCI panel, 48 h
[1] = system: SW-620 colon
[2] = system: NCI-H226 lung
[3] = system: UACC-257 melanoma
[4] = system: SK-MEL-2 melanoma
[5] = system: KM12 colon
[6] = system: MDA-MB-435
[7] = system: HOP-92 NSCLC
[8] = system: 786-0 renal
[9] = system: SF-539 CNS
[10] = system: LOX IMVI melanoma
[11] = system: IGROV1 ovarian
[12] = system: SF-268 CNS
[13] = system: MDA-MB-231 breast
[14] = system: HCT-116 colon
[15] = system: RPMI-8226 leukemia
[16] = system: MALME-3M melanoma
[17] = system: NCI-H522 lung
[18] = system: PC-3 prostate
[19] = system: ACHN renal
[20] = system: SR leukemia
[21] = system: K-562 leukemia
[22] = system: SK-MEL-28 melanoma
[23] = system: HL-60(TB) leukemia
[24] = system: SK-OV-3 ovarian
[25] = system: EKVX NSCLC
[26] = system: HCT-15 colon
[27] = system: RXF 393 renal
[28] = system: COLO 205 colon
[29] = system: M14 melanoma
[30] = system: U251 CNS
[31] = system: A549 NSCLC
[32] = system: NCI/ADR-RES ovarian
[33] = system: SNB-75 CNS
[34] = system: SF-295 CNS
[35] = system: HS 578T breast
[36] = system: OVCAR-4 ovarian
[37] = system: SK-MEL-5 melanoma
[38] = system: TK-10 renal
[39] = system: MOLT-4 leukemia
[40] = system: NCI-H23 lung
[41] = system: UO-31 renal
[42] = system: CAKI-1 renal
[43] = system: NCI-H460 lung
[44] = system: MCF7 breast
[45] = system: HCC-2998 colon
[46] = system: SN12C renal
[47] = system: OVCAR-5 ovarian
[48] = system: SNB-19 CNS
[49] = system: UACC-62 melanoma
[50] = system: OVCAR-3 ovarian
[51] = system: DU-145 prostate
[52] = system: CCRF-CEM leukemia
[53] = system: OVCAR-8 ovarian
[54] = system: A498 renal
[55] = system: BT-549 breast
[56] = system: HOP-62 NSCLC
[57] = system: HT29 colon
[58] = system: T-47D breast

C=CCSSc1ncnc2c1ncn2C1OC(CO)C(O)C1O (stereo not given)
GI50 [1]: 4.07 µM
TGI [1]: 23.2 µM
GI50 [2]: 4.14 µM
TGI [2]: > 100 µM
GI50 [3]: 6.79 µM
TGI [3]: > 86.1 µM
GI50 [4]: 6.25 µM
TGI [4]: > 41.9 µM
GI50 [5]: 3.24 µM
TGI [5]: > 39.9 µM
GI50 [6]: 2.38 µM
TGI [6]: > 100 µM
GI50 [7]: 0.222 µM
TGI [7]: 4.98 µM
GI50 [8]: 2.35 µM
TGI [8]: > 86.9 µM
GI50 [9]: 2.28 µM
TGI [9]: 21 µM
GI50 [10]: 0.37 µM
TGI [10]: > 78.6 µM
GI50 [11]: 0.0257 µM
TGI [11]: 0.644 µM
GI50 [12]: 5.05 µM
TGI [12]: > 58.1 µM
GI50 [13]: 3.76 µM
TGI [13]: > 100 µM
GI50 [14]: 2.96 µM
TGI [14]: > 45.4 µM
GI50 [15]: 1.15 µM
TGI [15]: 6.47 µM
GI50 [16]: 2.48 µM
TGI [16]: > 47.4 µM
GI50 [17]: 1.34 µM
TGI [17]: 10.7 µM
GI50 [18]: 2.28 µM
TGI [18]: > 22.4 µM
GI50 [19]: 3.34 µM
TGI [19]: > 100 µM
GI50 [20]: 0.205 µM
TGI [20]: 3.73 µM
GI50 [21]: 1.2 µM
TGI [21]: > 39.4 µM
GI50 [22]: 36.5 µM
TGI [22]: > 100 µM
GI50 [23]: 3.27 µM
TGI [23]: 19.9 µM
GI50 [24]: 0.501 µM
TGI [24]: > 87.2 µM
GI50 [25]: 69.3 µM
TGI [25]: > 100 µM
GI50 [26]: 3.28 µM
TGI [26]: > 100 µM
GI50 [27]: 6.93 µM
TGI [27]: 27.1 µM
GI50 [28]: 2.74 µM
TGI [28]: 13.1 µM
GI50 [29]: 0.536 µM
TGI [29]: > 100 µM
GI50 [30]: 13.5 µM
TGI [30]: > 100 µM
GI50 [31]: 21.9 µM
TGI [31]: > 100 µM
GI50 [32]: 3.86 µM
TGI [32]: > 100 µM
GI50 [33]: 0.731 µM
TGI [33]: 96.9 µM
GI50 [34]: 2.58 µM
TGI [34]: > 100 µM
GI50 [35]: 14.5 µM
TGI [35]: > 93.5 µM
GI50 [36]: 0.782 µM
TGI [36]: > 100 µM
GI50 [37]: 3.43 µM
TGI [37]: > 50.7 µM
GI50 [38]: 0.598 µM
TGI [38]: > 42.3 µM
GI50 [39]: 1.54 µM
TGI [39]: 6.75 µM
GI50 [40]: 3.94 µM
TGI [40]: > 74.2 µM
GI50 [41]: 3.63 µM
TGI [41]: 16.8 µM
GI50 [42]: 0.799 µM
TGI [42]: > 68.8 µM
GI50 [43]: 4.49 µM
TGI [43]: > 100 µM
GI50 [44]: 0.567 µM
TGI [44]: 11.6 µM
GI50 [45]: 3.06 µM
TGI [45]: 60 µM
GI50 [46]: 11.3 µM
TGI [46]: > 100 µM
GI50 [47]: 4.29 µM
TGI [47]: > 100 µM
GI50 [48]: > 55.7 µM
TGI [48]: > 100 µM
GI50 [49]: 1.64 µM
TGI [49]: > 100 µM
GI50 [50]: 0.829 µM
TGI [50]: > 32.7 µM
GI50 [51]: 1.24 µM
TGI [51]: > 48.1 µM
GI50 [52]: 0.46 µM
TGI [52]: 4.5 µM
GI50 [53]: 2.87 µM
TGI [53]: > 42.9 µM
GI50 [54]: 39.3 µM
TGI [54]: > 100 µM
GI50 [55]: 3.67 µM
TGI [55]: > 100 µM
GI50 [56]: 1.78 µM
TGI [56]: > 100 µM
GI50 [57]: 2.7 µM
TGI [57]: > 93.6 µM
GI50 [58]: 0.976 µM
TGI [58]: > 100 µM

CCOC(=O)N1C=CC(=C2C(=C3C=CN(C(=O)OCC)C=C3)C(=C3C=CN(C(=O)OCC)C=C3)C2=C2C=CN(C(=O)OCC)C=C2)C=C1
TGI [1]: > 100 µM
TGI [2]: 71 µM
TGI [3]: > 100 µM
TGI [4]: > 100 µM
TGI [5]: > 100 µM
TGI [6]: 98.8 µM
TGI [7]: 33.9 µM
TGI [8]: > 100 µM
TGI [9]: > 100 µM
TGI [10]: 45.8 µM
TGI [11]: 85.3 µM
TGI [12]: > 100 µM
TGI [13]: 70.5 µM
TGI [14]: 56.1 µM
TGI [16]: 64 µM
TGI [17]: 65.4 µM
TGI [18]: 91.7 µM
TGI [19]: 38.1 µM
TGI [20]: 26.3 µM
TGI [21]: 71.4 µM
TGI [22]: > 100 µM
TGI [23]: > 100 µM
TGI [24]: > 100 µM
TGI [25]: > 100 µM
TGI [26]: 44.1 µM
TGI [27]: > 100 µM
TGI [28]: > 100 µM
TGI [29]: > 100 µM
TGI [30]: 91.7 µM
TGI [31]: > 100 µM
TGI [32]: > 100 µM
TGI [33]: > 100 µM
TGI [34]: 92.3 µM
TGI [35]: 85.6 µM
TGI [36]: > 100 µM
TGI [37]: > 100 µM
TGI [38]: 81.6 µM
TGI [39]: 45.1 µM
TGI [40]: > 100 µM
TGI [41]: 38.5 µM
TGI [42]: 50.6 µM
TGI [43]: > 100 µM
TGI [44]: > 100 µM
TGI [46]: 92.4 µM
TGI [47]: > 100 µM
TGI [48]: > 100 µM
TGI [49]: 45 µM
TGI [50]: 81.1 µM
TGI [51]: > 100 µM
TGI [53]: 71.5 µM
TGI [55]: > 100 µM
TGI [56]: > 100 µM
TGI [57]: > 100 µM
TGI [58]: > 100 µM
